From patent US20160338992A1, “COMPOSITE COMPRISING 3'-HYDROXYGENISTEIN AND USE FOR INHIBITION OF MELANOGENESIS” (BIO-JOURDENESS INTERNATIONAL GROUP CO., LTD., priority 2015, published 2016)
pIC50: −log10 of the molar value.

Key:
tyrosinase [1] = conditions: cited from earlier work
tyrosinase [2] = test: Effect on tyrosinase activity (L-DOPA to dopachrome, absorbance at 475 nm); type: biochemical; conditions: for effect on tyrosinase activity (FIG. 2): 10-40 μM
Experimental: Tyrosinase plays an important role on melanogenesis. Thus the effect of 3′-hydroxygenistein on tyrosinase is detected. First dissolve 1 μL 3′-hydroxygenistein in DMSO (dimethyl sulfoxide) and mixed with 5 μL tyrosinase in a 94 μL, 50 mM PBS (pH 6.8). Add 0.9 mL, 2.5 mM L-DOPA (dissolved in 50 mM PBS, pH 6.8) into the mixture and react at 25° C. for 10 minutes.

B16 melanoma 4A5 cells [3] = test: Cell viability by MTT assay; type: cell-based, mouse; conditions: 48 hours
Experimental: In order to confirm a non-cytotoxic concentration range of 3′-hydroxygenistein, MTT and crystal violet staining assays are used to detect cell viability of 3′-hydroxygenistein. A mouse melanoma cell line (B16 melanoma 4A5 obtained from bioresource Collection and Research Center, Food Industry Research and Development Institute) is cultured in DMEM (Dulbecco's Modified Eagle Medium) containing 10% (v/v) fetal bovine serum (FBS) in a 5% CO2 humidified incubator for 24 hours. The B16 melanoma 4A5 cells are treated with 3′-hydroxygenistein for 48 hours. Then remove the culture medium, add 1 mg/mL MTT dissolved in PBS and incubate for 2 hours. Next remove MTT solution and add DMSO. At last, use spectrophotometer ((U-5100; Hitachi, Japan) to detect absorbance of dissolved formazan crystals at 475 nm. The cell viability is expressed as percentage of control (% of control).

B16 melanoma 4A5 cells [4] = test: Melanin content in IBMX-stimulated cells; type: cell-based, mouse; conditions: 400 μM IBMX, 2 days; for effect on melanogenesis (FIG. 4): 10 μM and 20 μM
Experimental: In this experiment, 3-isobutyl-1-methylxanthine (IBMX) is used as a melanogenic-stimulating agent while genistein and danazol with inhibitory effect on melanogenesis are used as positive controls. The B 16 melanoma 4A5 cells are cultured in DMEM containing 10% (v/v) fetal bovine serum (FBS) in a 5% CO2 humidified incubator at 37° C. Then seed cells in a 24-well plate with proper density. After one day, the cells are treated with 5 μM, 10 μM, and 20 μM 3′-hydroxygenistein respectively in the presence of 400 μM IBMX and cultured for 2 days. Then collect and wash the cells with PBS (Phosphate Buffered Saline) buffer twice. The cell pellets are dissolved in lysis buffer containing 20 mM trisodium phosphate (pH6.8) and 1% Triton X-100. After centrifugation at 15,000×g for 15 minutes, melanin pellets are dissolved in 1N NaOH containing 20% DMSO at 95° C. for 1 hour. Use spectrophotometer ((U-5100; Hitachi, Japan) to detect absorbance of melanin at 490 nm. The melanin content is expressed as percentage of the control group (IBMX group).

melanin cells = conditions: 30 μM to 60 μM; cited from earlier work

**Q.** For O=c1c(-c2ccc(O)cc2)coc2cc(O)ccc12 [daidzein], which “tyrosinase inhibition activity (literature)” value (tyrosinase [1]) is on record?
**A.** The value was “doesn't have such activity”.

**Q.** For O=c1c(-c2ccc(O)c(O)c2)coc2cc(O)cc(O)c12 [3′-hydroxygenistein], which “effect on tyrosinase activity (FIG. 2)” value (tyrosinase [2]) is on record?
**A.** Its value is “inhibits tyrosinase activity in a dose-dependent manner”.

**Q.** And the pIC50 (tyrosinase [2]; L-DOPA substrate, 25° C., 10 minutes, pH 6.8, read-out: half-inhibitory concentration (IC50) in inhibiting tyrosinase)?
**A.** Its pIC50 is 4.80.

**Q.** And the “tyrosinase inhibitory activity, times stronger than kojic acid” value (tyrosinase [2]; ratio of IC50 values, kojic acid as the standard)?
**A.** Its value is 11 times.

**Q.** What about the “cytotoxicity (cell survival rate, FIG. 3)” value (B16 melanoma 4A5 cells [3]; 40 μM) of the same compound?
**A.** Its value is “shows cytotoxicity”.

**Q.** And the “cytotoxicity (cell survival rate, FIG. 3)” value (B16 melanoma 4A5 cells [3]; concentration between 10 μM and 20 μM)?
**A.** Its value is “no cytotoxicity”.

**Q.** What about the “effect on melanogenesis (FIG. 4)” value (B16 melanoma 4A5 cells [4]) of the same compound?
**A.** Its value is “show inhibition of melanogenesis”.

**Q.** What about the “melanin content, percentage of the control group (IBMX group)” value (B16 melanoma 4A5 cells [4]; 20 μM) of the same compound?
**A.** Its value is 50.5%.

**Q.** What about the “inhibitory effect on melanogenesis compared with danazol” value (B16 melanoma 4A5 cells [4]) of the same compound?
**A.** The value was “better than danazol”.

**Q.** For O=c1c(-c2ccc(O)cc2)coc2c(O)c(O)cc(O)c12 [8-hydroxygenistein, 5,7,8,4′-tetrahydroxyisoflavone], which “tyrosinase inhibitory activity, times stronger than genistein” value (tyrosinase [1]; Taiwanese Pat. No. 1312686) is on record?
**A.** The value was 90 times.

**Q.** What does the source list for O=c1c(-c2ccc(O)cc2)coc2cc(O)c(O)cc12 [6-OHDe, 6,7,4′-trihrdroxyisoflavone]?
**A.** tyrosinase inhibitory activity, times stronger than glycitein (tyrosinase [1]; Taiwanese Pat. No. 1312686): 25 times; tyrosinase inhibition activity (literature) (tyrosinase [1]): have tyrosinase inhibition activity

**Q.** With O=c1c(-c2ccc(O)cc2)coc2c(O)c(O)ccc12 [8-OHDe, 7,8,4′-trihrdroxyisoflavone] as the compound, how does the “tyrosinase inhibitory activity, times stronger than daidzein” value (tyrosinase [1]; Taiwanese Pat. No. 1312686) read?
**A.** Its value is 30 times.

**Q.** What about the “tyrosinase inhibition activity (literature)” value (tyrosinase [1]) of the same compound?
**A.** The value was “have tyrosinase inhibition activity”.

**Q.** With O=c1c(-c2ccc(O)cc2)coc2cc(O)cc(O)c12 [genistein] as the compound, how does the “effect on tyrosinase activity (FIG. 2)” value (tyrosinase [2]) read?
**A.** Its value is “no tyrosinase inhibitory activity”.

**Q.** What about the “effect on melanin production (literature)” value (melanin cells) of the same compound?
**A.** Its value is “induce melanin cells to produce more melanin”.

**Q.** What about the “effect on melanogenesis (FIG. 4)” value (B16 melanoma 4A5 cells [4]) of the same compound?
**A.** The value was “no inhibitory effect on melanogenesis”.
